From patent publication US11696913B2, “Prolonged ectoparasite-controlling agent for animal” (MITSUI CHEMICALS AGRO, INC., priority 2017, dated 2023)

Columns and labels:
Ixodes ricinus = test: In vitro contact test with adult hard ticks (Ixodes ricinus); conditions: read-out: acaricidal activity; for pest or weed control at 5 µg/cm2, 5 µg/cm2: dose 5 μg/cm^2, 48 h
Procedure: (§1) In Vitro Contact Tests with Adult Hard Ticks
(§2) In vitro contact tests with ticks were conducted with adult males and females of Rhipicephalus sanguineus, Ixodes ricinus, or Dermacentor variabilis, or nymphs of Amblyomma americanum.
(§3) For the coating of the test vials, the test substance was dissolved and diluted in acetone p.a. to the desired concentration. The solution was then homogeneously applied to the inner wall and base of a glass vial by turning and rocking on an orbital shaker until complete evaporation of the solvent. For example, with a 900 ppm solution of test substance, an area-based dose of 5 μg/cm^2 was achieved.
(§4) After the solvent was completely evaporated, 5-10 adult ticks were put in each coated test vial, which was then sealed with a perforated plastic lid and incubated in a horizontal position in the dark at room temperature and ambient humidity (Rhipicephalus sanguineus) or in a climate-controlled cabinet (Ixodes ricinus, Dermacentor variabilis, Amblyomma americanum [21° C., 85% rel. hum.]). Acaricidal activity against the respective tick species was determined after 48 h. For this, ticks were collected to the base of the test vial by gentle knocking, and test vials were then incubated on a hotplate at 45-50° C. for no longer than 5 min. Ticks which remained motionless on the base of the test vial or moved uncoordinated without deliberately climbing up to avoid the heat were considered dead or moribund, respectively.
(§5) A substance was judged to have good acaricidal activity against the respective tick species when at least 80% of ticks were found dead or moribund at a dose of the substance of g/cm^2. An acaricidal activity of 100% means all ticks were dead or moribund. An acaricidal activity of 0% means none of the ticks was found dead or moribund.

Amblyomma americanum = test: In vitro contact test with hard ticks (Amblyomma americanum nymphs); conditions: read-out: acaricidal activity; for pest or weed control at 0.2 µg/cm2, 0.2 µg/cm2: dose 0.2 μg/cm^2, 48 h; for pest or weed control at 1 µg/cm2, 1 µg/cm2: dose 1 μg/cm^2, 48 h
Procedure: as §1, §2, §3, §4, §5

Ctenocephalides felis [1] = test: Ctenocephalides felis in-vitro feeding test with fleas (CTECFE oral); conditions: 48 hours, read-out: insecticidal feeding activity; for pest or weed control at 0.8 ppm: dose 0.8 ppm in citrated cattle blood; for pest or weed control at 4 ppm: dose 4 ppm in citrated cattle blood
Procedure: Ctenocephalides felis In-Vitro Feeding Test with Fleas (CTECFE Oral)
To prepare a test blood mixture for feeding fleas, the test substance was dissolved in dimethyl sulphoxide and diluted with citrated cattle blood to the desired concentration.
To assemble the test set-up, about 20 unfed adult male and female cat fleas
(Ctenocephalides felis) were placed in a chamber which was closed at the top and bottom with gauze. A metal cylinder was sealed at one end with parafilm membrane, placed with the sealed base onto the chamber, and filled with the test blood mixture, which could be imbibed by the fleas through the parafilm membrane. The assembled test set-up was maintained at about 37° C. After 48 hours, the insecticidal feeding activity against fleas was determined. 100% means that all of the fleas were killed; 0% means that none of the fleas was killed.

Ctenocephalides felis [2] = test: In vitro contact test with fleas; conditions: read-out: insecticidal activity; for pest or weed control at 0.2 µg/cm2, 0.2 µg/cm2: dose 0.2 μg/cm^2, dead or moribund fleas after 48 h; for pest or weed control at 1 µg/cm2, 1 µg/cm2: dose 1 μg/cm^2, dead or moribund fleas after 48 h
Procedure: In Vitro Contact Tests with Fleas
In vitro contact tests with fleas were conducted with adult male and female cat fleas (Ctenocephalides felis).
as §3, with “To coat” for “For the coating of”, “tubes,” for “vials,”, “tube” for “vial”
Upon complete evaporation of the solvent, 5-10 adult cat fleas (Ctenocephalides felis) were added to each coated tube, which was then sealed with a perforated plastic lid and incubated in a horizontal position at room temperature and ambient humidity. After 48 h, insecticidal activity against fleas was determined. For this, fleas were collected to the base of the tube by knocking the tube, and the tube was allowed to stand upright. Fleas which remained motionless at the base or moved in an uncoordinated manner were considered dead or moribund, respectively.
A substance was judged to have good insecticidal activity against Ctenocephalides felis when at least 80% of the fleas were found dead or moribund at a dose of the substance of μg/cm^2. 100% insecticidal activity means that all the fleas were found dead or moribund. 0% insecticidal activity means that no fleas were found dead or moribund.

Dermacentor variabilis = test: In vitro contact test with adult hard ticks (Dermacentor variabilis); conditions: read-out: acaricidal activity; for pest or weed control at 0.2 µg/cm2, 0.2 µg/cm2: dose 0.2 μg/cm^2, 48 h; for pest or weed control at 1 µg/cm2, 1 µg/cm2: dose 1 μg/cm^2, 48 h
Procedure: as §1, §2, §3, §4, §5

Rhipicephalus sanguineus = test: In vitro contact test with adult hard ticks (Rhipicephalus sanguineus); conditions: read-out: acaricidal activity; for pest or weed control at 0.04 µg/cm2, 0.04 µg/cm2: dose 0.04 μg/cm^2, 48 h; for pest or weed control at 0.2 µg/cm2, 0.2 µg/cm2: dose 0.2 μg/cm^2, 48 h; for pest or weed control at 1 µg/cm2, 1 µg/cm2: dose 1 μg/cm^2, 48 h
Procedure: as §1, §2, §3, §4, §5

[3] = system: Rhipicephalus (Boophilus) microplus; test: In vitro injection test with Rhipicephalus (Boophilus) microplus (BOOPMI Inj); conditions: 168 h, laid fertile eggs after 7 days, read-out: acaricidal activity; for pest or weed control at 0.00016 mg: dose 0.16 μg/animal injected; for pest or weed control at 0.0008 mg: dose 0.8 μg/animal injected
Procedure: In Vitro Injection Test with Rhipicephalus (Boophilus) Microplus (BOOPMI Inj)
To produce an appropriate mixture for injection, the test substance was dissolved and diluted in dimethyl sulphoxide to the desired concentration. 1 μl of the test mixture was injected into the abdomen of each of 5 engorged adult female cattle ticks (Rhipicephalus (Boophilus) microplus). The ticks were transferred into petri dishes and maintained in a climate-controlled room [28° C., 85% rel. hum.].
Acaricidal activity against cattle ticks was assessed after 7 days by assessment of laid fertile eggs. […] An acaricidal activity of 100% means that none of the ticks laid eggs or laid eggs were infertile; 0% means that the ticks laid eggs, and all the eggs were fertile.

SMILES	pest or weed control at 5 µg/cm2, 5 µg/cm2 (Ixodes ricinus)	pest or weed control at 0.2 µg/cm2, 0.2 µg/cm2 (Amblyomma americanum)	pest or weed control at 1 µg/cm2, 1 µg/cm2 (Amblyomma americanum)	pest or weed control at 0.8 ppm (Ctenocephalides felis [1])	pest or weed control at 4 ppm (Ctenocephalides felis [1])	pest or weed control at 0.2 µg/cm2, 0.2 µg/cm2 (Ctenocephalides felis [2])	pest or weed control at 1 µg/cm2, 1 µg/cm2 (Ctenocephalides felis [2])	pest or weed control at 0.2 µg/cm2, 0.2 µg/cm2 (Dermacentor variabilis)	pest or weed control at 1 µg/cm2, 1 µg/cm2 (Dermacentor variabilis)	pest or weed control at 0.04 µg/cm2, 0.04 µg/cm2 (Rhipicephalus sanguineus)	pest or weed control at 0.2 µg/cm2, 0.2 µg/cm2 (Rhipicephalus sanguineus)	pest or weed control at 1 µg/cm2, 1 µg/cm2 (Rhipicephalus sanguineus)	pest or weed control at 0.16 ppm (Ctenocephalides felis [1]; dose 0.16 ppm in citrated cattle blood)	pest or weed control at 0.00016 mg [3]	pest or weed control at 0.0008 mg [3]	pest or weed control at 0.2 µg/cm2, 0.2 µg/cm2 (Ixodes ricinus; dose 0.2 μg/cm^2, 48 h)	pest or weed control at 1 µg/cm2, 1 µg/cm2 (Ixodes ricinus; dose 1 μg/cm^2, 48 h)	pest or weed control at 0.04 µg/cm2, 0.04 µg/cm2 (Amblyomma americanum; dose 0.04 μg/cm^2, 48 h)
O=C(Nc1cccc(C(=O)Nc2c(Br)cc(C(F)(C(F)(F)F)C(F)(F)F)cc2C(F)(F)F)c1F)c1ccc(F)cc1 [Compound 29]	90%	90%	90%	95%	95%	95%	95%	90%	90%	90%	90%	90%	–	–	–	–	–	–
O=C(Nc1cccc(C(=O)Nc2c(I)cc(C(F)(C(F)(F)F)C(F)(F)F)cc2C(F)(F)F)c1F)c1ccc(Cl)cc1Cl [Compound 33]	–	90%	90%	95%	95%	95%	95%	90%	90%	–	–	–	95%	100%	100%	–	–	–
N#Cc1ccc(C(=O)Nc2cccc(C(=O)Nc3c(Br)cc(C(F)(C(F)(F)F)C(F)(F)F)cc3C(F)(F)F)c2)c(F)c1 [Compound 15]	–	90%	90%	–	95%	95%	95%	–	–	–	90%	90%	–	100%	100%	–	–	–
O=C(Nc1c(I)cc(C(F)(C(F)(F)F)C(F)(F)F)cc1C(F)(F)F)c1cccc(NC(=O)c2ccc([N+](=O)[O-])cc2Cl)c1 [Compound 39]	–	90%	90%	95%	95%	–	95%	–	–	–	–	90%	–	100%	100%	–	–	–
O=C(Nc1cccc(C(=O)Nc2c(Br)cc(C(F)(C(F)(F)F)C(F)(F)F)cc2OC(F)(F)F)c1)c1ccc(F)cc1 [Compound 12]	90%	90%	90%	95%	95%	95%	95%	–	–	90%	90%	90%	–	100%	100%	90%	90%	90%
